Results published in ChEMBL document CHEMBL4765228, “Indole-like Trk receptor antagonists” (Eur J Med Chem, 2016).

Legend:
[1] = molecular target: RAC-alpha serine/threonine-protein kinase (Homo sapiens) (UniProt P31749); assay: Inhibition of human AKT1 (104 to 408 residues) assessed as residual activity at 1 uM relative to control
[2] = molecular target: Vascular endothelial growth factor receptor 1 (Homo sapiens) (UniProt P17948); assay: Inhibition of human VEGFR1 assessed as residual activity at 1 uM relative to control
Sequence of Vascular endothelial growth factor receptor 1 (Homo sapiens) (P17948 whole entry): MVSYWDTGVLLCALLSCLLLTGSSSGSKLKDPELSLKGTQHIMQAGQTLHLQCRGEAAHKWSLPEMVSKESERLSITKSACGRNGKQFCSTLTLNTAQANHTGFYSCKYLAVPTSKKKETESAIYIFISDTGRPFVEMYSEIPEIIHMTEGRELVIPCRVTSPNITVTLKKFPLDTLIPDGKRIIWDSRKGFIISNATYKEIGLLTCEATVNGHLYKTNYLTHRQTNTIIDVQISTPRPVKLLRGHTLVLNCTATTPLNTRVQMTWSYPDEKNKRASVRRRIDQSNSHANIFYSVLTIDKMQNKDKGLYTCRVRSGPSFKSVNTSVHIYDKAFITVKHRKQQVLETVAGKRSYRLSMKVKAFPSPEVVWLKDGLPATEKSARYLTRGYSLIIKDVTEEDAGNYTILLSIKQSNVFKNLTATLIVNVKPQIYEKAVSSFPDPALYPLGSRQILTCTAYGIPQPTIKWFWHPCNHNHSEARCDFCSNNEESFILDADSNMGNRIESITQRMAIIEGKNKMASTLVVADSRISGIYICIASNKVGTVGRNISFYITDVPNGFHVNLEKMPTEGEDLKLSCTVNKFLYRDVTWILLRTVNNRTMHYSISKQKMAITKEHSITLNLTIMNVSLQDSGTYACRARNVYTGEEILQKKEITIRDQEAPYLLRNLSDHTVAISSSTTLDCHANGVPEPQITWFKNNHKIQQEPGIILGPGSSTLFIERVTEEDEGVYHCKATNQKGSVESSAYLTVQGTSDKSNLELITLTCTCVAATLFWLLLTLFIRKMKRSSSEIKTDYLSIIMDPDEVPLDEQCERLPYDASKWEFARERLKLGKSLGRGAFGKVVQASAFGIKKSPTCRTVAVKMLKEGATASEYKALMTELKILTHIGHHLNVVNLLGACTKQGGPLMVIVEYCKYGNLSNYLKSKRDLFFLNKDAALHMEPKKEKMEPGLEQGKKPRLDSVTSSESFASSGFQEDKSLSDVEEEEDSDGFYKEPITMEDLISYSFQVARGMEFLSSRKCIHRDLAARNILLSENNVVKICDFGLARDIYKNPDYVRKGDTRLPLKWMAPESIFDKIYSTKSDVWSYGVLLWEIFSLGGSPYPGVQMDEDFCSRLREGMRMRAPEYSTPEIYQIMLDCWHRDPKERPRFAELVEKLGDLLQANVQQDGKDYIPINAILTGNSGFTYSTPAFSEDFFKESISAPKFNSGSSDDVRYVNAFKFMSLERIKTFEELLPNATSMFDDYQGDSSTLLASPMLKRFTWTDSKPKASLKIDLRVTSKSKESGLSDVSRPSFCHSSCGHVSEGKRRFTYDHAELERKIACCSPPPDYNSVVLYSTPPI

[3] = molecular target: Proto-oncogene tyrosine-protein kinase Src (Homo sapiens) (UniProt P12931); assay: Inhibition of human GST-HIS-tagged SRC assessed as residual activity at 1 uM relative to control
[4] = molecular target: Calcium/calmodulin-dependent protein kinase type 1D (Homo sapiens) (UniProt Q8IU85); assay: Inhibition of human CAMK1D assessed as residual activity at 1 uM relative to control
[5] = molecular target: Dual specificity mitogen-activated protein kinase kinase 1 (Homo sapiens) (UniProt Q02750); assay: Inhibition of human wild type MEK1 assessed as residual activity at 0.1 uM relative to control
Sequence of Dual specificity mitogen-activated protein kinase kinase 1 (Homo sapiens) (Q02750 whole entry): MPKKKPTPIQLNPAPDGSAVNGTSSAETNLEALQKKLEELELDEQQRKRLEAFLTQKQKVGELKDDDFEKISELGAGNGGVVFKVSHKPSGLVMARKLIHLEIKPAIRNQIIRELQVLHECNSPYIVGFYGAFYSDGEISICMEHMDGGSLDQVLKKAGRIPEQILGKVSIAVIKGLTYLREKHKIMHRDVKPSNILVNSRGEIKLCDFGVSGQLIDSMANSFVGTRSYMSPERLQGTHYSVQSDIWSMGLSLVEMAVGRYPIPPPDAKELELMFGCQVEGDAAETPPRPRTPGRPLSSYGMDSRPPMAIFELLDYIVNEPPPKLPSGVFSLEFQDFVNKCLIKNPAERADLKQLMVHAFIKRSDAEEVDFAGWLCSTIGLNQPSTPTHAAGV

[6] = molecular target: Tyrosine-protein kinase BTK (Homo sapiens) (UniProt Q06187); assay: Inhibition of human BTK assessed as residual activity at 0.1 uM relative to control
Sequence of Tyrosine-protein kinase BTK (Homo sapiens) (Q06187 whole entry): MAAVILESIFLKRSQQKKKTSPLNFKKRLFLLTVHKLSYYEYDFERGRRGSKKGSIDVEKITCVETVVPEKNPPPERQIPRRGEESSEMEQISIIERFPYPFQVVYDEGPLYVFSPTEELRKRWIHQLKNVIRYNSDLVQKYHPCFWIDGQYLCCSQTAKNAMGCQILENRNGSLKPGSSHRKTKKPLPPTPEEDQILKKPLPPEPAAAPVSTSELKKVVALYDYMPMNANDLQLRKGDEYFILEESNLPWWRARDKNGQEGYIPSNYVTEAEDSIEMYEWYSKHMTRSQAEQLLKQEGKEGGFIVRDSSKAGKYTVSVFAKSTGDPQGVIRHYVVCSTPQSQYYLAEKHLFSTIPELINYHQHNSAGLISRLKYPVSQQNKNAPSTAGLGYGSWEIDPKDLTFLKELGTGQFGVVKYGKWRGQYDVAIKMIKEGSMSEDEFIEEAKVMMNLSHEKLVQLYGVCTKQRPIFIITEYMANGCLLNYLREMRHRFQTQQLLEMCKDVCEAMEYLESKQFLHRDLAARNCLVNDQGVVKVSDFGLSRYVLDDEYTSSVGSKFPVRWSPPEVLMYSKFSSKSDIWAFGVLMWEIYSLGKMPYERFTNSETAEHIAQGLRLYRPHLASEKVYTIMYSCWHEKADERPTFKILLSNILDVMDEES

[7] = molecular target: Serine/threonine-protein kinase Nek6 (Homo sapiens) (UniProt Q9HC98); assay: Inhibition of human NEK6 assessed as residual activity at 1 uM relative to control
Sequence of Serine/threonine-protein kinase Nek6 (Homo sapiens) (Q9HC98 whole entry): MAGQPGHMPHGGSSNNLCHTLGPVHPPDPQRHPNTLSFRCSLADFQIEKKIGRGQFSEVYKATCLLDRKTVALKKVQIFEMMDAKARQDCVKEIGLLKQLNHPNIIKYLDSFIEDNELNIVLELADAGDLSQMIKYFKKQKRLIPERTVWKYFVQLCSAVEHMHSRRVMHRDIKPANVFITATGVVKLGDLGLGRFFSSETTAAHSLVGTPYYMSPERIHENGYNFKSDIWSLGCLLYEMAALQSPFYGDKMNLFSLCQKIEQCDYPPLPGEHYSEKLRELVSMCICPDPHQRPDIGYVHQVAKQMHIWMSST

[8] = molecular target: Insulin-like growth factor 1 receptor (Homo sapiens) (UniProt P08069); assay: Inhibition of human IGF1R assessed as residual activity at 0.1 uM relative to control
[9] = molecular target: Ephrin type-A receptor 2 (Homo sapiens) (UniProt P29317); assay: Inhibition of human EPHA2 assessed as residual activity at 0.1 uM relative to control
[10] = molecular target: MAP/microtubule affinity-regulating kinase 3 (Homo sapiens) (UniProt P27448); assay: Inhibition of human MARK3 assessed as residual activity at 1 uM relative to control
Sequence of MAP/microtubule affinity-regulating kinase 3 (Homo sapiens) (P27448 whole entry, looked up): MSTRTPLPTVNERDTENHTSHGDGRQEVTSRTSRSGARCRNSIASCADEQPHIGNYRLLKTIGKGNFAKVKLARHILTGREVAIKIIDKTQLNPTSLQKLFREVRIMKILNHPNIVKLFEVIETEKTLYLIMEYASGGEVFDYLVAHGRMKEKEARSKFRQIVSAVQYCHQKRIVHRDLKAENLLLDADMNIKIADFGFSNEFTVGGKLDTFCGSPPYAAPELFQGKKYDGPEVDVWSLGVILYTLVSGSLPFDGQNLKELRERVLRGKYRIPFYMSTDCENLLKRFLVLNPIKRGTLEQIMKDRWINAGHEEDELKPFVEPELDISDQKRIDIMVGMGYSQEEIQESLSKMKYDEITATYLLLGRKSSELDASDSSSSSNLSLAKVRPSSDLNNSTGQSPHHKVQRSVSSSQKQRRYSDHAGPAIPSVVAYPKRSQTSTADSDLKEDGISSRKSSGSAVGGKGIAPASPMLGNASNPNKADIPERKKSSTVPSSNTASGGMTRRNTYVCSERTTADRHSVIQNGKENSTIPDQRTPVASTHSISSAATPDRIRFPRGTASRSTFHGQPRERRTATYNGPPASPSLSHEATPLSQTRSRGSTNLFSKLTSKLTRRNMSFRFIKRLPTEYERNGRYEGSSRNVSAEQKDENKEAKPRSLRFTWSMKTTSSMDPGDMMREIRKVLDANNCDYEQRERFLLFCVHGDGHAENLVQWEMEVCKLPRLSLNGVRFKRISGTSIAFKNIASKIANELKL

[11] = molecular target: Homeodomain-interacting protein kinase 2 (Homo sapiens) (UniProt Q9H2X6); assay: Inhibition of human HIPK2 assessed as residual activity at 1 uM relative to control
[12] = molecular target: Aurora kinase B (Homo sapiens) (UniProt Q96GD4); assay: Inhibition of human Aurora-B assessed as residual activity at 0.1 uM relative to control
[13] = molecular target: Receptor tyrosine-protein kinase erbB-4 (Homo sapiens) (UniProt Q15303); assay: Inhibition of human ERBB4 assessed as residual activity at 0.1 uM relative to control
[14] = molecular target: Protein kinase C alpha type (Homo sapiens) (UniProt P17252); assay: Inhibition of human PKCalpha assessed as residual activity at 0.1 uM relative to control
[15] = molecular target: T1, Serine/threonine-protein kinase TBK1 (Homo sapiens) (UniProt Q9UHD2); assay: Inhibition of human TBK1 assessed as residual activity at 0.1 uM relative to control
T1 sequence (whole entry): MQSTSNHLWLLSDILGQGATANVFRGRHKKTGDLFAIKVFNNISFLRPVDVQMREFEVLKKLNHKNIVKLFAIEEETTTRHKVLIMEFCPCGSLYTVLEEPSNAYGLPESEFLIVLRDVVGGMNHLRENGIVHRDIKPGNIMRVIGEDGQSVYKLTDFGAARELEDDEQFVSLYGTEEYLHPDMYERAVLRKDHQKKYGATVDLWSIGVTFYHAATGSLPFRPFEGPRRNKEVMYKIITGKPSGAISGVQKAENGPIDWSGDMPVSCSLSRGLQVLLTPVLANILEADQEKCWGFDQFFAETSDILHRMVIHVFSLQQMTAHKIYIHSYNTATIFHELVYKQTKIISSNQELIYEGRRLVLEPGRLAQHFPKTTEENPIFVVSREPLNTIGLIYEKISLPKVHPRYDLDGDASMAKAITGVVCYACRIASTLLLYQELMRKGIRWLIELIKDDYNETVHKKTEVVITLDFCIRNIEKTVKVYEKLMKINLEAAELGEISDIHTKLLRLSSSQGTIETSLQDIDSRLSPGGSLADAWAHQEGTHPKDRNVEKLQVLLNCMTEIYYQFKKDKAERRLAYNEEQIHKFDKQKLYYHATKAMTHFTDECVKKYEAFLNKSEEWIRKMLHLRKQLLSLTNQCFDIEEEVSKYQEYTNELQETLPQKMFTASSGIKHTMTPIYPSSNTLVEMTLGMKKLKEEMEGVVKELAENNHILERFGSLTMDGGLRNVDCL

[16] = molecular target: T2, Eukaryotic elongation factor 2 kinase (Homo sapiens) (UniProt O00418); assay: Inhibition of human EEF2K assessed as residual activity at 1 uM relative to control
T2 sequence (whole entry): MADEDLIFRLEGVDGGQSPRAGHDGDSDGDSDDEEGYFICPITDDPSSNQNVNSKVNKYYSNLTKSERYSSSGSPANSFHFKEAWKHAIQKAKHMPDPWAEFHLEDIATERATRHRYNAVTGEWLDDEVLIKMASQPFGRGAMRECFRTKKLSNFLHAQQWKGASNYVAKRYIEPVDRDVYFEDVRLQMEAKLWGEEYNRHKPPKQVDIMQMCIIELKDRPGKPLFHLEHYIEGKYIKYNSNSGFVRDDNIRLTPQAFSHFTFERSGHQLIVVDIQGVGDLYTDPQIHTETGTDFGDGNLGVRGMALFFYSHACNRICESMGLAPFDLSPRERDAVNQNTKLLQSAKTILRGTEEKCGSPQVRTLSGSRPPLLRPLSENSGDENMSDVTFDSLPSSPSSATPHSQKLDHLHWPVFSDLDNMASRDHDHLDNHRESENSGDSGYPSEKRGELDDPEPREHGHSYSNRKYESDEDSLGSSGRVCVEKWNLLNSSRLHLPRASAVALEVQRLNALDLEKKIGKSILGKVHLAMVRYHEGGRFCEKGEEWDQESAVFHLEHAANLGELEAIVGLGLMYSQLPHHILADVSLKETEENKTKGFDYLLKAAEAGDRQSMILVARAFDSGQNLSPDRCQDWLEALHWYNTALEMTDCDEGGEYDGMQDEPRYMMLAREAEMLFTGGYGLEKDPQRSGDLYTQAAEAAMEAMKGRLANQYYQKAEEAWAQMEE

[17] = molecular target: Serine/threonine-protein kinase Chk2 (Homo sapiens) (UniProt O96017); assay: Inhibition of human CHK2 assessed as residual activity at 1 uM relative to control
Sequence of Serine/threonine-protein kinase Chk2 (Homo sapiens) (O96017 whole entry): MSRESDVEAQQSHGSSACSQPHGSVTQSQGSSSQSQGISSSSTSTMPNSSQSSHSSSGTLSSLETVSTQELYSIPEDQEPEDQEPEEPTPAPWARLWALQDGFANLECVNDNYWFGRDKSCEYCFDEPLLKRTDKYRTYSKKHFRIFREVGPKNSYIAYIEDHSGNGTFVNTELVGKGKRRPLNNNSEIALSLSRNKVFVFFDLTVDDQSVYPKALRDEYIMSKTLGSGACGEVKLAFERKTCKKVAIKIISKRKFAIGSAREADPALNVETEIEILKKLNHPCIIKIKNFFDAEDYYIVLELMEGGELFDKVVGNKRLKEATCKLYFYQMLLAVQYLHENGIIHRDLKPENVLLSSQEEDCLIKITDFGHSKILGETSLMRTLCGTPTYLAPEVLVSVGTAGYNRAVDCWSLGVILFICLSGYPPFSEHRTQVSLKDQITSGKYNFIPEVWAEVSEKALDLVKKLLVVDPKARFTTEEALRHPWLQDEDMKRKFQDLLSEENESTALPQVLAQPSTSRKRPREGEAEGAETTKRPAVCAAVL

Homo sapiens = organism: Homo sapiens; assay: Inhibition of human S6K assessed as residual activity at 1 uM relative to control
[18] = molecular target: Myosin light chain kinase, smooth muscle (Homo sapiens) (UniProt Q15746); assay: Inhibition of human MYLK assessed as residual activity at 0.1 uM relative to control
[19] = molecular target: Glycogen synthase kinase-3 beta (Homo sapiens) (UniProt P49841); assay: Inhibition of human GSK3-beta assessed as residual activity at 0.1 uM relative to control
Sequence of Glycogen synthase kinase-3 beta (Homo sapiens) (P49841 whole entry, looked up): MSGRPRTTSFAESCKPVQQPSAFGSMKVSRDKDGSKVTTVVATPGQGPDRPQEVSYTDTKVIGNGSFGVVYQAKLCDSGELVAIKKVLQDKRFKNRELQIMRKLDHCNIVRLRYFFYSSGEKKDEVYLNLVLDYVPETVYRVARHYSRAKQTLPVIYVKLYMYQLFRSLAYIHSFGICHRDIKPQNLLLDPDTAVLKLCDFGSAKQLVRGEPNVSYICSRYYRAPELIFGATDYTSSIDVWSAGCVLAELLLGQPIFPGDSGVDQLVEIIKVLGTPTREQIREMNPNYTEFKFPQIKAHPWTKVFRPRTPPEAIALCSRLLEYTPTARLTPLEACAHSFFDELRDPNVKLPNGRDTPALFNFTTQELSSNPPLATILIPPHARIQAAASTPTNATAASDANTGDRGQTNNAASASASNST

[20] = molecular target: High affinity nerve growth factor receptor (Homo sapiens, UniProt P04629); assay: Inhibition of human TRKA assessed as residual activity at 0.1 uM relative to control
[21] = molecular target: Dual specificity mitogen-activated protein kinase kinase 1 (Homo sapiens) (UniProt Q02750); assay: Inhibition of human wild type MEK1 assessed as residual activity at 1 uM relative to control

Sequence of RAC-alpha serine/threonine-protein kinase (Homo sapiens) (P31749 whole entry, the tested form may be a part): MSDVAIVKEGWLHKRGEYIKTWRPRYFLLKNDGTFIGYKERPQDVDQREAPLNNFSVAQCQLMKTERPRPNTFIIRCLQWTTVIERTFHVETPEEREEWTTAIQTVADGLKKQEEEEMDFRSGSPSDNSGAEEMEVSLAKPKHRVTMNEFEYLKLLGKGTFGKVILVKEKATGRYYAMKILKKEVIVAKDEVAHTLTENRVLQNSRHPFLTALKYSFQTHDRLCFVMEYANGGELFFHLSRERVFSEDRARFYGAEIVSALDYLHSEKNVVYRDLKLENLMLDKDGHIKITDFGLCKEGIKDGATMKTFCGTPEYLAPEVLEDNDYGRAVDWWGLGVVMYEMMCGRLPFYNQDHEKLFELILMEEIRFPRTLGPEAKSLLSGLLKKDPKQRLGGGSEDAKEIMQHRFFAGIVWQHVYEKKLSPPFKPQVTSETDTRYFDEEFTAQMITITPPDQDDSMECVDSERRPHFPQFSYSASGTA

Row | Compound | Activity [1] | Activity [2] | Activity [3] | Activity [4] | Activity [5] | Activity [6] | Activity [7] | Activity [8] | Activity [9] | Activity [10] | Activity [11] | Activity [12] | Activity [13] | Activity [14] | Activity [15] | Activity [16] | Activity [17] | Activity (Homo sapiens) | Activity [18] | Activity [19] | also measured
1 | CNS(=O)(=O)c1ccc2c(c1)/C(=C/c1cn(C)c3ccc(OC)cc13)C(=O)N2 | 98% | 59% | 73% | 80% | 104% | 97% | 97% | 96% | 100% | 87% | 102% | 74% | 98% | 101% | 97% | 92% | 75% | 83% | 92% | 90% | Activity [20]: 4%; Activity [21]: 93%
2 | COc1ccc2[nH]cc(/C=C3\C(=O)Nc4ccc(S(N)(=O)=O)cc43)c2c1 | 101% | 76% | 74% | 94% | 87% | 100% | 108% | 98% | 110% | 93% | 84% | 95% | 94% | 104% | 96% | 112% | 12% | 70% | 94% | 103% | Activity [20]: 6%; Activity [21]: 72%
3 | Cn1cc(/C=C2\C(=O)Nc3ccc(S(N)(=O)=O)cc32)c2ccccc21 | 97% | 81% | 108% | 90% | 67% | 111% | 109% | 105% | 99% | 88% | 103% | 59% | 94% | 106% | 75% | 103% | 5% | 81% | 97% | 104% | Activity [20]: 3%; Activity [21]: 59%

Second part, led by results:

Row | Activity [1] | Activity [2] | Activity [3] | Activity [4] | Activity [5] | Activity [6] | Activity [7] | Activity [8] | Activity [9] | Activity [10] | Activity [11] | Activity [12] | Activity [13] | Activity [14] | Activity [15] | Activity [16] | Activity [17] | Activity (Homo sapiens) | Activity [18] | Activity [19] | Compound | also measured
4 | 93% | 93% | 70% | 94% | 104% | 89% | 100% | 94% | 106% | 97% | 85% | 85% | 103% | 93% | 100% | 86% | 99% | 85% | 94% | 98% | COc1ccc2c(c1)c(/C=C1\C(=O)Nc3ccc(S(=O)(=O)N(C)C)cc31)cn2C | Activity [20]: 18%; Activity [21]: 97%
5 | 105% | 93% | 68% | 103% | 107% | 95% | 103% | 102% | 111% | 96% | 96% | 43% | 110% | 96% | 96% | 106% | 92% | 92% | 91% | 99% | CN(C)S(=O)(=O)c1ccc2c(c1)/C(=C/c1cn(C)c3ccc(O)cc13)C(=O)N2 | Activity [20]: 10%; Activity [21]: 98%
6 | 96% | 85% | 91% | 97% | 82% | 117% | 98% | 105% | 98% | 90% | 81% | 79% | 101% | 91% | 79% | 102% | 39% | 92% | 94% | 93% | COc1ccc2c(c1)c(/C=C1\C(=O)Nc3ccc(S(N)(=O)=O)cc31)cn2C | Activity [20]: 3%; Activity [21]: 71%
